Reference: patent publication US11084798B1, “2-oxoquinazoline derivatives as methionine adenosyltransferase 2A inhibitors” (IDEAYA BIOSCIENCES, INC., priority 2018, dated 2021)
pIC50: −log10 of the molar value.

Molecular target: hMAT2A (Homo sapiens (Human), UniProt P31153)
Assay: Malachite Green Assay (MAT2A enzyme inhibition)
Format: biochemical
Details: hMAT2A 50 nM, substrates 500 uM each
Experimental: The ability of the compound of present disclosure to inhibit MAT2A enzyme was determined using the Malachite Green or Phosphate Sensor Fluorescence Assay described below.
L-methionine Substrate: Alfa Aesar catalog #J61904
ATP Substrate: Alfa Aesar cat #J60336
Malachite Green Detection Reagent: Millipore Sigma catalog #MAK307-1KT
Assay buffer: 50 mM Tris, pH 7.5/50 mM KCl/10 mM MgCl2/0.01% Brij-35/1 mM DTT/0.1% BGG
The plate was centrifuged at 1000 rpm for 1 minute and then incubated at room temperature for 1 hour. 5 μL of malachite green detection reagent was added to all the test wells and the plate was centrifuged at 1000 rpm for 1 minute and then incubated at room temperature for 30 minutes. The plate was read for absorbance at 620 nm on a plate reader (e.g., Infinite M1000).

hMAT2A, sequence (P31153 whole entry): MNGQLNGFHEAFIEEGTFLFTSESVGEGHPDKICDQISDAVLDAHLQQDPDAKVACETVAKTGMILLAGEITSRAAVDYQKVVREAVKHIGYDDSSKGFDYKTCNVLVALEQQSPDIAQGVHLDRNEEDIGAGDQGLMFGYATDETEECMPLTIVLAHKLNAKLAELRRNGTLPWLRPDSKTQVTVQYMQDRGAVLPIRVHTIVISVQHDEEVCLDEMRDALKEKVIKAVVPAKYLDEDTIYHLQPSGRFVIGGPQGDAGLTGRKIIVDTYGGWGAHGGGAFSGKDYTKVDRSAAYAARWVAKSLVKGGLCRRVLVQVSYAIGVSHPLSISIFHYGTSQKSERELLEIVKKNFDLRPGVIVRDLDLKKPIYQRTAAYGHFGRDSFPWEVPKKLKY

- pIC50: 6.30 to 6.70
Substance: 7-chloro-4-(dimethylamino)-1-(3-(2-phenoxyethyl)phenyl)quinazolin-2(1H)-one [Example 10]
